Results taken from US12491170B2, “Stable treprostinil prodrugs” (United Therapeutics Corporation, priority 2020, dated 2025).
One block for each molecule: values may come before it.

Experiments:
[1] = target: prostaglandin I2 (PGI2) receptor (IP) (Homo sapiens, UniProt P43119); assay: IP receptor cAMP agonist assay (CHO-K1 cells); type: cell-based; set-up: key to EC50 Fold Different from Treprostinil, IP Receptor: NC = too inactive to realistically calculate
In short: (§1)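 Agonist-mode cAMP accumulation in cells overexpressing the human receptor (DP1 and EP2 in HEK293T, IP in CHO-K1). Compounds were added at varying concentrations with 0.1% DMSO for 20 min at 37 °C, then cAMP was read by TR-FRET. Dose-responses were fitted to variable-slope sigmoidal curves.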

[2] = Stability in liver microsomes, human
[3] = target: prostaglandin E2 (PGE2) receptor 2 (EP2) (Homo sapiens, UniProt P43116); assay: EP2 receptor cAMP agonist assay (HEK293T cells); type: cell-based; set-up: key to EC50 Fold Different from Treprostinil, EP2 Receptor: NC = too inactive to realistically calculate
In short: as §1

[4] = Stability in cryopreserved hepatocytes, rat
[5] = Stability in liver microsomes, rat
[6] = Stability in cryopreserved hepatocytes, human
[7] = Stability in liver microsomes, dog
[8] = Stability in cryopreserved hepatocytes, dog
[9] = Table 18, * partial agonists or odd dose-response curves
[10] = Table 22, relative to treprostinil EC50 values, * partial agonists or ambiguous dose-response curves

prostaglandin I2 (PGI2) receptor (IP), sequence (P43119 whole entry): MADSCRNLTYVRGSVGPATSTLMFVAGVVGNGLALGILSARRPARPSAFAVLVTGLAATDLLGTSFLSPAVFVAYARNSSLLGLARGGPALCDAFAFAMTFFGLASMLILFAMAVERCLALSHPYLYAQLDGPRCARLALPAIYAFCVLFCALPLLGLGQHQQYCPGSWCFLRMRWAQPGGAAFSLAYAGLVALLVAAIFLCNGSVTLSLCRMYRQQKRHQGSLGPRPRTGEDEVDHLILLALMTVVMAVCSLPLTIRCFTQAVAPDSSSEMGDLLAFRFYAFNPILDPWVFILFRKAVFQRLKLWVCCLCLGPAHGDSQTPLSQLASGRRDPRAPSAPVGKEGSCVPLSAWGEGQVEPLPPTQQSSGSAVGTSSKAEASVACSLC
prostaglandin E2 (PGE2) receptor 2 (EP2), sequence (P43116 whole entry): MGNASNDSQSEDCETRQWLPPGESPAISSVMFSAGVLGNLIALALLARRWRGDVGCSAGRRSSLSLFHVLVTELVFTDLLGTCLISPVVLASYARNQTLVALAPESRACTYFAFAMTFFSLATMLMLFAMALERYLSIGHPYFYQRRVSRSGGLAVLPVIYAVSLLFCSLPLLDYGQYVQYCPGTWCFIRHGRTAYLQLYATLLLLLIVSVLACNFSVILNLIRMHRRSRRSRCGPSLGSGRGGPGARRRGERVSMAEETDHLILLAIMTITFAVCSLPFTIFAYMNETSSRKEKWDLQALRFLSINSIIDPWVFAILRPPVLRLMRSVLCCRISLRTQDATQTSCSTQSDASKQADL

EC50 Fold Different from Treprostinil, IP Receptor [1, 9]: NC
Activity at the IP receptor compared to treprostinil ([1]; summary of findings): inactive
Trep Concentration 0 min [2]: 1.18 µM
Trep Concentration 10 min [2]: 0.903 µM
Trep Concentration 20 min [2]: 0.602 µM
Trep Concentration 30 min [2]: 0.538 µM
Trep Concentration 60 min [2]: 0.381 µM
Treprostinil Concentration 0 min [2]: 1.18 µM
Treprostinil Concentration 15 min [2]: 0.903 µM
Treprostinil Concentration 30 min [2]: 0.602 µM
Treprostinil Concentration 60 min [2]: 0.538 µM
Treprostinil Concentration 120 min [2]: 0.381 µM
AUC ([2]; human): 37.43 µmol·min/L
AUC Mono (treprostinil formed) ([2]; human): 37.4 µmol·min/L
CLint ([2]; human, microsomes): >0.139 mL/min/mg protein
Half-life ([2]; human, microsomes): <10 min
EC50 Fold Different from Treprostinil, EP2 Receptor [3, 9]: NC
Activity at the EP2 receptor compared to treprostinil ([3]; summary of findings): inactive
Trep Concentration (μM) 0 min [4]: 0 µM
Trep Concentration (μM) 15 min [4]: 0.606 µM
Trep Concentration (μM) 30 min [4]: 0.579 µM
Trep Concentration (μM) 60 min [4]: 0.484 µM
Trep Concentration (μM) 120 min [4]: 0.405 µM
Treprostinil Concentration 0 min [4]: 0 µM
Treprostinil Concentration 120 min [4]: 0.405 µM
CLint, calculated (in parentheses) ([4]; hepatocytes): 0.116 mL/min/mg protein
Half-life, calculated (in parentheses) ([4]; hepatocytes): 3.97 min
AUC ([4]; rat): 56.05 µmol·min/L
Mono AUC (treprostinil formed) ([4]; rat): 56.1 µmol·min/L
CLint ([4]; rat, hepatocytes): > 0.0308 mL/min/mg protein
Half-life ([4]; rat, hepatocytes): < 15 min
Trep Concentration 0 min [5]: 0.336 µM
Trep Concentration 10 min [5]: 0.595 µM
Trep Concentration 20 min [5]: 0.764 µM
Trep Concentration 30 min [5]: 0.653 µM
Trep Concentration 60 min [5]: 0.699 µM
Treprostinil Concentration 0 min [5]: 0.336 µM
Treprostinil Concentration 15 min [5]: 0.595 µM
Treprostinil Concentration 30 min [5]: 0.764 µM
Treprostinil Concentration 60 min [5]: 0.653 µM
Treprostinil Concentration 120 min [5]: 0.699 µM
CLint, calculated (in parentheses) ([5]; microsomes): 0.250 mL/min/mg protein
Half-life, calculated (in parentheses) ([5]; microsomes): 5.53 min
AUC Mono (treprostinil formed) ([5]; rat): 38.8 µmol·min/L
CLint ([5]; rat, microsomes): > 0.139 mL/min/mg protein
Half-life ([5]; rat, microsomes): < 10 min
Trep Concentration (μM) 0 min [6]: 0.00542 µM
Trep Concentration (μM) 15 min [6]: 0.638 µM
Trep Concentration (μM) 30 min [6]: 0.556 µM
Trep Concentration (μM) 60 min [6]: 0.482 µM
Trep Concentration (μM) 120 min [6]: 0.413 µM
Treprostinil Concentration 0 min [6]: 0.00542 µM
Treprostinil Concentration 120 min [6]: 0.413 µM
CLint, calculated (in parentheses) ([6]; hepatocytes): 0.185 mL/min/mg protein
Half-life, calculated (in parentheses) ([6]; hepatocytes): 2.50 min
AUC ([6]; human): 56.2 µmol·min/L
Mono AUC (treprostinil formed) ([6]; human): 56.2 µmol·min/L
CLint ([6]; human, hepatocytes): > 0.0308 mL/min/mg protein
Half-life ([6]; human, hepatocytes): < 15 min
Trep Concentration 0 min [7]: 1.24 µM
Trep Concentration 10 min [7]: 1.26 µM
Trep Concentration 20 min [7]: 1.24 µM
Trep Concentration 30 min [7]: 1.23 µM
Trep Concentration 60 min [7]: 1.07 µM
Treprostinil Concentration 0 min [7]: 1.24 µM
Treprostinil Concentration 15 min [7]: 1.26 µM
Treprostinil Concentration 30 min [7]: 1.24 µM
Treprostinil Concentration 60 min [7]: 1.23 µM
Treprostinil Concentration 120 min [7]: 1.07 µM
AUC Mono (treprostinil formed) ([7]; dog): 71.9 µmol·min/L
CLint ([7]; dog, microsomes): >0.139 mL/min/mg protein
Half-life ([7]; dog, microsomes): <10 min
Trep Concentration (μM) 0 min [8]: 0.0959 µM
Trep Concentration (μM) 30 min [8]: 0.597 µM
Trep Concentration (μM) 60 min [8]: 0.511 µM
Trep Concentration (μM) 120 min [8]: 0.445 µM
Treprostinil Concentration 15 min [8]: 0.736 µM
Treprostinil Concentration 120 min [8]: 0.445 µM
AUC ([8]; dog): 61.54 µmol·min/L
Mono AUC (treprostinil formed) ([8]; dog): 61.5 µmol·min/L
CLint ([8]; dog, hepatocytes): >0.0308 mL/min/mg protein
Half-life ([8]; dog, hepatocytes): <15 min
Compound: CCCCCC(CCC1C(OC(=O)CC)CC2Cc3c(cccc3OCC(=O)O)CC21)OC(=O)CC (stereo not drawn) [Prodrug LXX, treprostinil dipropionate]

IP Relative to Tre [1, 10]: 54x
Treprostinil Concentration 0 min [2]: 1.17 µM
Treprostinil Concentration 15 min [2]: 1.01 µM
Treprostinil Concentration 30 min [2]: 0.837 µM
Treprostinil Concentration 60 min [2]: 0.736 µM
Treprostinil Concentration 120 min [2]: 0.389 µM
AUC Mono (treprostinil formed) ([2]; human): 44.9 µmol·min/L
EP2 Relative to Tre [3, 10]: 50x
Treprostinil Concentration 0 min [4]: 0.0159 µM
Treprostinil Concentration 120 min [4]: 0.391 µM
Mono AUC (treprostinil formed) ([4]; rat): 49.3 µmol·min/L
Treprostinil Concentration 0 min [5]: 0.26 µM
Treprostinil Concentration 15 min [5]: 0.43 µM
Treprostinil Concentration 30 min [5]: 0.525 µM
Treprostinil Concentration 60 min [5]: 0.586 µM
Treprostinil Concentration 120 min [5]: 0.553 µM
AUC Mono (treprostinil formed) ([5]; rat): 30.9 µmol·min/L
Treprostinil Concentration 0 min [6]: 0.113 µM
Treprostinil Concentration 120 min [6]: 0.527 µM
Mono AUC (treprostinil formed) ([6]; human): 68.8 µmol·min/L
Treprostinil Concentration 0 min [7]: 0.971 µM
Treprostinil Concentration 15 min [7]: 0.961 µM
Treprostinil Concentration 30 min [7]: 0.934 µM
Treprostinil Concentration 60 min [7]: 0.915 µM
Treprostinil Concentration 120 min [7]: 0.743 µM
AUC Mono (treprostinil formed) ([7]; dog): 53.3 µmol·min/L
Treprostinil Concentration 15 min [8]: 0.781 µM
Treprostinil Concentration 120 min [8]: 0.53 µM
Mono AUC (treprostinil formed) ([8]; dog): 71.2 µmol·min/L
Compound: CCCCCC(CCC1C(O)CC2Cc3c(cccc3OCC(=O)O)CC21)OC(=O)CC (stereo not drawn) [Prodrug LV]
